Experimental data published in PMC4450297, “Screening Active Compounds from Garcinia Species Native to China Reveals Novel Compounds Targeting the STAT/JAK Signaling Pathway” (BioMed Research International, 2015).

system: A498; assay: Cell panel screen (CellTiter-Glo); assay type: cell-based, human; conditions: A498 (listed under Lung), 20 micromolar, 72 hrs
Protocol: (§1) All cells were obtained from the cell bank of the American Type Culture Collection (ATCC) and cultured in the supplier's recommended media supplemented with 10% FBS. The cell panel screen was measured using the CellTiter-Glo assay (Promega, Madison, WI) following a standard protocol. Briefly, cancer cells were seeded in 96-well plates and cultured overnight at 37°C with or without 5% CO2 in an incubator. Each compound was dissolved with limited DMSO and diluted to a certain concentration with culture medium and then added to the corresponding well of the cell plate. The final concentration of compound was 20 μM. The control cells (without treatment) received the same amount of DMSO and were incubated under the same conditions. After 72 h cultivation, 100 μL of the CellTiter-Glo reagent was added directly to each well for 10-minute incubation. The plate was then read on a FlexStation 3 microplate luminometer (Molecular Devices, USA) to monitor the luminescence signal generated by the luciferase-catalyzed reaction of luciferin and ATP. The percent of growth inhibition was calculated using the following formula: (untreated cells − treated cells)/(untreated cells − background without cells) ∗ 100.

SMILES | Percent Inhibition [%]
COc1c(O)c(O)c2c(=O)c3c(CC=C(C)C)c(CC=C(C)C)c(O)c(O)c3oc2c1CC=C(C)C [Compound N-7] | 13

system: A704; assay: Cell panel screen (CellTiter-Glo); assay type: cell-based, human; conditions: A704 (Kidney), 20 micromolar, 72 hrs
Protocol: as §1

SMILES | Percent Inhibition [%]
COc1c(O)c(O)c2c(=O)c3c(CC=C(C)C)c(CC=C(C)C)c(O)c(O)c3oc2c1CC=C(C)C [Compound N-7] | 1

system: BT-474; assay: Cell panel screen (CellTiter-Glo); assay type: cell-based, human; conditions: BT-474 (Breast), 20 micromolar, 72 hrs
Protocol: as §1

SMILES | Percent Inhibition [%]
COc1c(O)c(O)c2c(=O)c3c(CC=C(C)C)c(CC=C(C)C)c(O)c(O)c3oc2c1CC=C(C)C [Compound N-7] | -21

system: BT-549; assay: Cell panel screen (CellTiter-Glo); assay type: cell-based, human; conditions: BT-549 (Breast), 20 micromolar, 72 hrs
Protocol: as §1

SMILES | Percent Inhibition [%]
COc1c(O)c(O)c2c(=O)c3c(CC=C(C)C)c(CC=C(C)C)c(O)c(O)c3oc2c1CC=C(C)C [Compound N-7] | -14

system: Bel-7402; assay: Cell panel screen (CellTiter-Glo); assay type: cell-based, human; conditions: Bel-7402 (Liver), 20 micromolar, 72 hrs
Protocol: as §1

SMILES | Percent Inhibition [%]
COc1c(O)c(O)c2c(=O)c3c(CC=C(C)C)c(CC=C(C)C)c(O)c(O)c3oc2c1CC=C(C)C [Compound N-7] | 15

system: C3A; assay: Cell panel screen (CellTiter-Glo); assay type: cell-based, human; conditions: C3A (Liver), 20 micromolar, 72 hrs
Protocol: as §1

SMILES | Percent Inhibition [%]
COc1c(O)c(O)c2c(=O)c3c(CC=C(C)C)c(CC=C(C)C)c(O)c(O)c3oc2c1CC=C(C)C [Compound N-7] | 24

system: C8166; assay: Cell panel screen (CellTiter-Glo); assay type: cell-based, human; conditions: C8166 (Leukemia), 20 micromolar, 72 hrs
Protocol: as §1

SMILES | Percent Inhibition [%]
COc1c(O)c(O)c2c(=O)c3c(CC=C(C)C)c(CC=C(C)C)c(O)c(O)c3oc2c1CC=C(C)C [Compound N-7] | 10

system: CCF-STTG1; assay: Cell panel screen (CellTiter-Glo); assay type: cell-based, human; conditions: CCF-STTG1 (Brain), 20 micromolar, 72 hrs
Protocol: as §1

SMILES | Percent Inhibition [%]
COc1c(O)c(O)c2c(=O)c3c(CC=C(C)C)c(CC=C(C)C)c(O)c(O)c3oc2c1CC=C(C)C [Compound N-7] | 6

system: CW-2; assay: Cell panel screen (CellTiter-Glo); assay type: cell-based, human; conditions: CW-2 (Colon), 20 micromolar, 72 hrs
Protocol: as §1

SMILES | Percent Inhibition [%]
COc1c(O)c(O)c2c(=O)c3c(CC=C(C)C)c(CC=C(C)C)c(O)c(O)c3oc2c1CC=C(C)C [Compound N-7] | 22

system: ChaGo-K-1; assay: Cell panel screen (CellTiter-Glo); assay type: cell-based, human; conditions: ChaGo-K-1 (Lung), 20 micromolar, 72 hrs
Protocol: as §1

SMILES | Percent Inhibition [%]
COc1c(O)c(O)c2c(=O)c3c(CC=C(C)C)c(CC=C(C)C)c(O)c(O)c3oc2c1CC=C(C)C [Compound N-7] | 4

system: Colo 205; assay: Cell panel screen (CellTiter-Glo); assay type: cell-based, human; conditions: Colo 205, 20 micromolar, 72 hrs
Protocol: as §1

SMILES | Percent Inhibition [%]
COc1c(O)c(O)c2c(=O)c3c(CC=C(C)C)c(CC=C(C)C)c(O)c(O)c3oc2c1CC=C(C)C [Compound N-7] | 9

system: HCC1395; assay: Cell panel screen (CellTiter-Glo); assay type: cell-based, human; conditions: HCC1395 (Breast), 20 micromolar, 72 hrs
Protocol: as §1

SMILES | Percent Inhibition [%]
COc1c(O)c(O)c2c(=O)c3c(CC=C(C)C)c(CC=C(C)C)c(O)c(O)c3oc2c1CC=C(C)C [Compound N-7] | 22

system: HCC1569; assay: Cell panel screen (CellTiter-Glo); assay type: cell-based, human; conditions: HCC1569 (Breast), 20 micromolar, 72 hrs
Protocol: as §1

SMILES | Percent Inhibition [%]
COc1c(O)c(O)c2c(=O)c3c(CC=C(C)C)c(CC=C(C)C)c(O)c(O)c3oc2c1CC=C(C)C [Compound N-7] | 5

system: HCC1599; assay: Cell panel screen (CellTiter-Glo); assay type: cell-based, human; conditions: HCC1599 (Breast), 20 micromolar, 72 hrs
Protocol: as §1

SMILES | Percent Inhibition [%]
COc1c(O)c(O)c2c(=O)c3c(CC=C(C)C)c(CC=C(C)C)c(O)c(O)c3oc2c1CC=C(C)C [Compound N-7] | 8

system: HCC1937; assay: Cell panel screen (CellTiter-Glo); assay type: cell-based, human; conditions: HCC1937 (Breast), 20 micromolar, 72 hrs
Protocol: as §1

SMILES | Percent Inhibition [%]
COc1c(O)c(O)c2c(=O)c3c(CC=C(C)C)c(CC=C(C)C)c(O)c(O)c3oc2c1CC=C(C)C [Compound N-7] | -5

system: HEC-1-A; assay: Cell panel screen (CellTiter-Glo); assay type: cell-based, human; conditions: HEC-1-A (Uterus), 20 micromolar, 72 hrs
Protocol: as §1

SMILES | Percent Inhibition [%]
COc1c(O)c(O)c2c(=O)c3c(CC=C(C)C)c(CC=C(C)C)c(O)c(O)c3oc2c1CC=C(C)C [Compound N-7] | -17

system: HGC-27; assay: Cell panel screen (CellTiter-Glo); assay type: cell-based, human; conditions: HGC-27 (Stomach), 20 micromolar, 72 hrs
Protocol: as §1

SMILES | Percent Inhibition [%]
COc1c(O)c(O)c2c(=O)c3c(CC=C(C)C)c(CC=C(C)C)c(O)c(O)c3oc2c1CC=C(C)C [Compound N-7] | 0

system: HPAF-II; assay: Cell panel screen (CellTiter-Glo); assay type: cell-based, human; conditions: HPAF-II (Pancreas), 20 micromolar, 72 hrs
Protocol: as §1

SMILES | Percent Inhibition [%]
COc1c(O)c(O)c2c(=O)c3c(CC=C(C)C)c(CC=C(C)C)c(O)c(O)c3oc2c1CC=C(C)C [Compound N-7] | 9
